This test in a line: Suppression test of Experimental Example 1: masking and harmonizing effect in a cup, four expert panelists.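 As to harmonizing: score 1 means in harmony 0 indefinite and −1 not in harmony.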 On the procedure: In the present invention, the selection of the above component (I), component (II) and component (III) was carried out as follows. That is, one of the pseudo body odor compositions mentioned above and a target fragrance component were mixed and left at room temperature for 30 minutes. Thereafter, evaluations of the masking and harmonizing effects to the acid odor were carried out by four expert panelists.
After 30 minutes, a hole of about 1 cm in diameter was formed in the aluminum foil and the investigations of masking effect and the harmonizing effect were carried out according to following evaluation criteria by four expert panelists.
3: Excellent in the masking.
2: Substantially excellent in the masking.
1: Slightly sensible of the body odor (sweat odor and armpit odor).
0: Sensible of the body odor (sweat odor and armpit odor) (insufficient in the masking)

[1] abbreviates: 200 μl pseudo body odor composition of Example 4 and 10 μl perfume on filter papers in sealed about 500 ml cup, after 30 minutes, four expert panelists, scale 0-3.
Setting [2] is: 200 μl pseudo body odor composition of Example 4 and 10 μl perfume on filter papers in sealed about 500 ml cup, after 30 minutes, four expert panelists, scale −1 to 1.

Among the data in patent US20060159639A1, “Pseudo body odor composition and perfume composition for inhibiting body odor” (priority 2003, published 2006) are Masking and Harmonizing values, retold here.

Read-outs that look alike come from different tables or passages of the source.

Consider `CCCCCCCCCCCC=O` [Dodecanal], for which the Masking under setting [1] turned out to be 1.5 points. This molecule displayed a Harmonizing under setting [2] of −1.

In turn, `C=CCOC(=O)COC1CCCCC1` [Cyclogalbanate, allyl cyclohexyl oxyacetate] yielded a Masking under setting [1] of 2.5 points. Moreover, under setting [2], the Harmonizing was found to be 1.

With `C/C=C/C(=O)C1C(C)C=CCC1(C)C` (stereo not shown) [δ-Damascone], the Masking under setting [1] was found to be 1.5 points. The Harmonizing under setting [2] was determined as 0.

`CC1(C)CCCC2(C)C1CCC1(C)OCCC12` (stereo not drawn) [Ambroxan, Decahydro-3α, 6,6,9α-tetramethyldodecanhydronaphto[2,1-b]furan] yielded a Masking under setting [1] of 2. For the same molecule, the Harmonizing under setting [2] was 1.

For the molecule `CC(CC=O)CCCC(C)(C)O` (stereo not shown) [Hydroxycitronellal], under setting [1], the Masking worked out at 1. This molecule showed a Harmonizing under setting [2] of 0.

Under setting [1], `CCCCCCCCC=CCC=O` [Example 3-Dodecenal, 3-Dodecenal] displayed a Masking of 0.5 points. The same molecule returned a Harmonizing under setting [2] of −1.

`C/C=C/C(=O)C1=C(C)CCCC1(C)C` [β-Damascone] yielded a Masking under setting [1] of 2. Under setting [2], this molecule registered a Harmonizing of 1.

On to `CCCCCC1COCCC1OC(C)=O` (stereo not shown) [Jasmal, 3-pentyl tetrahydropyranyl acetate], for which, under setting [1], the Masking is on record as 1. The Harmonizing under setting [2] is reported as −1.

Turning to `CC(=O)CCC=C(C)C` [Methyl heptenone], the Masking under setting [1] turned out to be 3. The molecule further yielded a Harmonizing under setting [2] of 1.

Under setting [1], `O=C(Cc1ccccc1)OCCc1ccccc1` [Phenylethyl phenyl acetate] showed a Masking of 2. Under setting [2], this molecule returned a Harmonizing of 0.

On to `O=CCCC=C1CC2CC1C1CCCC21` (stereo not shown) [4-Tricyclodecylene butanal], for which the Masking under setting [1] came out at 1.5 points. The Harmonizing under setting [2] is reported as 0.

As to `CC1CC(C)(c2ccccc2)OC(C)O1` (stereo not shown) [Floropal, 2,4,6-trimethyl-4-phenyl-1,3-dioxane], the Masking under setting [1] is reported as 1. Besides, under setting [2], the Harmonizing was 0.

`CCC(=O)OC1CC2CC1C1CC=CC21` (stereo not shown) [Cyclaprop, tricyclodecenyl propionate]: under setting [1], the Masking was found to be 1. Under setting [2], this molecule showed a Harmonizing of −1.

`CC(=O)/C(C)=C/C1C(C)=CCCC1(C)C` (stereo not shown) [γ-Methylionone]: the Masking under setting [1] amounted to 2. Moreover, under setting [2], the Harmonizing came out at 1.

In turn, `CC(=O)CCc1ccc(O)cc1` [Raspberry ketone, 4-(4-hydroxyphenyl)-2-butanone] displayed a Masking under setting [1] of 0.5 points. The molecule also gave a Harmonizing under setting [2] of −1.

As for `COC(=O)c1ccccc1N=CCC(C)CCCC(C)(C)O` (stereo not shown) [Aurantiol, Hydoroxycitronellylidene methyl anthranilate], the Masking under setting [1] was 2. The molecule further registered a Harmonizing under setting [2] of 1.

With `CCC=C(C)C(O)CCCCC` (stereo not shown) [4-Methyl-3-decene-5-ol], the Masking under setting [1] is listed as 2.5 points. The Harmonizing under setting [2] stood at 0.

For the molecule `CC(=O)c1c(C)cc(C(C)(C)C)cc1C` [4-tert-Butyl-2,6-dimethylacetophenone], the Masking under setting [1] stood at 2. Further, the Harmonizing under setting [2] was 0.

The molecule `CC(C)[C@H]1CC[C@@H](CO)CC1` [Myol, cis-p-isopropylcyclohexyl methanol] showed a Masking under setting [1] of 1. Under setting [2], this molecule yielded a Harmonizing of −1.

With `CC(C=O)Cc1ccc(C(C)(C)C)cc1` (stereo not drawn) [Lilial, p-tert-butyl-α-methyl hydrocinnamic aldehyde], the Harmonizing under setting [2] was found to be 0.

Under setting [1], `c1ccc(Oc2ccccc2)cc1` [Diphenyl oxide] registered a Masking of 1.5 points. The Harmonizing under setting [2] was 0.

In turn, `CCCCCC=O` [Hexanal] gave a Masking under setting [1] of 3. Besides, the Harmonizing under setting [2] turned out to be 1.

For `CCCCCCC1CCC(=O)O1` (stereo not shown) [γ-Decalactone], under setting [1], the Masking is reported as 2.5 points. For the same molecule, the Harmonizing under setting [2] turned out to be 1.

`CC(C)[C@@H]1CC[C@@H](C)C[C@H]1O` [l-Menthol] registered a Masking under setting [1] of 1. Further, the Harmonizing under setting [2] was −1.

Under setting [1], `CC(C)=CCCC(C)CC#N` (stereo not shown) [Citronellyl nitrile] gave a Masking of 3. Under setting [2], this molecule returned a Harmonizing of 1.

On to `CC/C=C\CCOC(=O)c1ccccc1O` [cis-3-Hexenyl salicylate], for which the Masking under setting [1] was determined as 2. Further, the Harmonizing under setting [2] is 1.

Molecule `COC(Cc1ccccc1)OC` [Phenylactoaldehyde dimethylacetal] had a Masking under setting [1] of 2. The Harmonizing under setting [2] was 1.

Under setting [1], `C=CC(C)(O)CCC=C(C)C` (stereo not shown) [Linalool] displayed a Masking of 1. Also, the Harmonizing under setting [2] turned out to be 0.

In turn, isocamphyl cyclohexanol [Santalex] displayed a Masking under setting [1] of 0.5 points. This molecule also had a Harmonizing under setting [2] of −1.

Under setting [1], `CC(C)Cc1ccc2ncccc2c1` [Isobutyl quinoline] registered a Masking of 2. Moreover, the Harmonizing under setting [2] amounted to 1.

Molecule `CCOC(=O)C(C)CC` (stereo not shown) [Ethyl-2-methyl butylate] came in with a Masking under setting [1] of 3. Further, the Harmonizing under setting [2] came to 1.

`CC(C)=CCCC(C)=CC#N` [Geranyl nitrile] came in with a Masking under setting [1] of 3. Also, the Harmonizing under setting [2] came to 1.

For the molecule `CC12CCC(CC1=O)C2(C)C` (stereo not shown) [Camphor], the Masking under setting [1] was determined as 3. In addition, the Harmonizing under setting [2] came to 1.

Take `CCOC(=O)C12CCCC1C1CCC2C1` (stereo not shown) [Fluitate, ethyl tricyclo[5.2.1.0^2,6]decan-2-yl carboxylate]: the Masking under setting [1] was 1.5 points. The Harmonizing under setting [2] was −1.

As to `C=C(C)C1CC=C(C)C(=O)C1` (stereo not shown) [Example 1-Carvone, 1-Carvone], under setting [1], the Masking stood at 3. This molecule also had a Harmonizing under setting [2] of 1.

Under setting [1], `CCCCCCCCC=O` [Nonanal] gave a Masking of 1.5 points. The Harmonizing under setting [2] was −1.

For the molecule `O=C(OCCc1ccccc1)c1ccccc1O` [Phenylethyl salicylate], the Masking under setting [1] is recorded as 1. In addition, the Harmonizing under setting [2] is given as −1.

On to `CC(C)=CCCC(C)CCCC(C)C=O` (stereo not shown) [2,6,10-Trimethyl-9-undecenal], for which the Masking under setting [1] is given as 1. In addition, the Harmonizing under setting [2] is −1.

In turn, `C=CCOC(=O)CCC1CCCCC1` [Allyl cyclohexyl propionate] had a Masking under setting [1] of 2. In addition, the Harmonizing under setting [2] was found to be 0.

Turning to `CCCOC(C)OCCc1ccccc1` (stereo not shown) [Acetoaldehydephenylethylpropyl acetal], under setting [1], the Masking is on record as 2.5 points. Further, under setting [2], the Harmonizing came to 1.

`CC(C)=CCCC1=CCC(C)(C=O)CC1` (stereo not shown) [Homomyracaldehyde, 1-methyl-4-(4-methyl-3-pentenyl)-3-cyclohexen carboxy aldehyde] had a Masking under setting [1] of 1. Under setting [2], this molecule registered a Harmonizing of −1.

`CCC(=CCC1CC=C(C)C1(C)C)CO` (stereo not shown) [Levosandol, 2-ethyl-4-(2,2,3-trimethyl-3-cyclopentene-1-yl)-2-butene-1-ol] gave a Masking under setting [1] of 2.5 points. For the same molecule, the Harmonizing under setting [2] amounted to 1.

Turning to `COC(=O)c1c(C)cc(O)c(C)c1O` [Evernyl, methyl dihydroxydimethyl benzoate], under setting [1], the Masking came out at 0. Further, under setting [2], the Harmonizing was −1.

`CC(=O)OC(C)c1ccccc1` (stereo not shown) [Styralyl acetate] yielded a Masking under setting [1] of 3. Also, the Harmonizing under setting [2] is 1.

Consider `CC(C)=CCCC1=CCC(C=O)CC1` (stereo not shown) [Myracaldehyde, 4-(4-methyl-3-pentenyl)-3-cyclohexene-1-carbaldehyde], for which the Masking under setting [1] stood at 1.5 points. Also, under setting [2], the Harmonizing stood at 0.

For the molecule `CC(CO)c1ccccc1` (stereo not shown) [2-Phenyl propanol], the Masking under setting [1] is given as 1. Also, the Harmonizing under setting [2] is −1.

`COc1ccc(COC(C)=O)cc1` [Anisyl acetate] showed a Masking under setting [1] of 1.5 points. This molecule registered a Harmonizing under setting [2] of 0.

As for `C=CCOC(=O)CCCCC` [Allyl caproate], the Masking under setting [1] is given as 3. Moreover, the Harmonizing under setting [2] is reported as 1.

Under setting [1], `CCCCCCCCCCC=CC#N` [Tridecene-2-nitrile] came in with a Masking of 1.5 points. Besides, the Harmonizing under setting [2] turned out to be 0.

In the case of `Cc1cccc(CC(C)(C)CO)c1` [2,2-Dimethyl-3-(3-methylphenyl)propanol], under setting [1], the Masking amounted to 0.5 points. Under setting [2], this molecule displayed a Harmonizing of −1.

In turn, `O=C/C=C/c1ccccc1` [Cinnamic aldehyde] came in with a Masking under setting [1] of 2. Moreover, the Harmonizing under setting [2] stood at 0.

Under setting [1], `COC(=O)Cc1ccccc1` [Methyl phenyl acetate] displayed a Masking of 2.5 points. Under setting [2], this molecule returned a Harmonizing of 1.

Regarding `CC(=O)O[C@]1(C)CC[C@@]23C[C@@H]1C(C)(C)[C@@H]2CC[C@H]3C` [Cedryl acetate], under setting [1], the Masking came to 0. Besides, under setting [2], the Harmonizing is −1.

Turning to `CCCCCC1CCC(=O)O1` (stereo not shown) [γ-Nonalactone], the Masking under setting [1] is 2.5 points. The molecule further registered a Harmonizing under setting [2] of 1.

Consider `CC(=O)OC(C)(C)C1CC=C(C)CC1` (stereo not shown) [Terpinyl acetate], for which, under setting [1], the Masking is recorded as 2. The Harmonizing under setting [2] was 0.

On to `CC/C=C\CCOC(C)=O` [cis-3-Hexenyl acetate], for which, under setting [1], the Masking is reported as 3. Also, under setting [2], the Harmonizing was 1.

In turn, `CC(=O)C(C)=C(C)C(C)C(C)(C)C` (stereo not shown) [Koavone, ethylene tetramethyl heptanone] showed a Harmonizing of 1 and a Masking of 2.5 points.

Molecule `CC(C)(O)CCCC1=CCC(C=O)CC1` (stereo not shown) [Kovanol, 4(3)-(4-hydroxy-4-methylpentyl)-3-cyclohexene-1-carboxy aldehyde] came in with a Masking under setting [1] of 1. Besides, the Harmonizing under setting [2] came out at 0.
